Results published in PubChem BioAssay (NCI).
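Protocol summary: plate cells (96-well), add compound at 5 concentrations, incubate 48 h, interpolate endpoints linearly. GI50 = concentration required for 50% inhibition of growth. TGI denotes the concentration required for complete inhibition of growth.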

Assays:
Test in all cases: NCI-60 cell line screen, 48 h
SK-MEL-28 melanoma = test system: SK-MEL-28 melanoma
MCF7 breast = test system: MCF7 breast
UACC-62 melanoma = test system: UACC-62 melanoma
MDA-MB-435 = test system: MDA-MB-435
COLO 205 colon = test system: COLO 205 colon
SN12C renal = test system: SN12C renal
EKVX NSCLC = test system: EKVX NSCLC
OVCAR-5 ovarian = test system: OVCAR-5 ovarian
SF-268 CNS = test system: SF-268 CNS
CCRF-CEM leukemia = test system: CCRF-CEM leukemia

| SMILES | GI50 (SK-MEL-28 melanoma) | TGI (SK-MEL-28 melanoma) | GI50 (MCF7 breast) | TGI (MCF7 breast) | GI50 (UACC-62 melanoma) | TGI (UACC-62 melanoma) | GI50 (MDA-MB-435) | TGI (MDA-MB-435) | GI50 (COLO 205 colon) | TGI (COLO 205 colon) | GI50 (SN12C renal) | TGI (SN12C renal) | GI50 (EKVX NSCLC) | TGI (EKVX NSCLC) | GI50 (OVCAR-5 ovarian) | TGI (OVCAR-5 ovarian) | GI50 (SF-268 CNS) | TGI (SF-268 CNS) | GI50 (CCRF-CEM leukemia) | TGI (CCRF-CEM leukemia) |
| --- | --- | --- | --- | --- | --- | --- | --- | --- | --- | --- | --- | --- | --- | --- | --- | --- | --- | --- | --- | --- |
| CC(=O)c1c(C(F)(F)F)n([O-])c2ccccc2[n+]1=O | 3.48 µM | 18 µM | 0.873 µM | 4.08 µM | 0.7 µM | 3.02 µM | 1.2 µM | 4.03 µM | 2.16 µM | 7.27 µM | 1.07 µM | 3.17 µM | 3.47 µM | 8.01 µM | 1.18 µM | 3.67 µM | 1.49 µM | 6.13 µM | – | – |
| O=C(Oc1cccnc1)c1cccnc1Nc1ccnc(C(F)(F)F)c1 | 38.1 µM | > 100 µM | 2.68 µM | > 100 µM | 5.78 µM | 24.1 µM | – | – | 27.4 µM | 72.4 µM | 6.48 µM | > 100 µM | 51.3 µM | > 100 µM | 72.8 µM | > 100 µM | 5.63 µM | > 100 µM | 2.49 µM | 10.5 µM |
| CNC(=S)Nc1ccc(OC)c2ccccc12 | – | > 10 µM | – | > 10 µM | – | > 10 µM | – | > 10 µM | – | > 10 µM | – | > 10 µM | – | – | – | > 10 µM | – | > 10 µM | – | > 10 µM |
| IC[P+]1(c2ccccc2)CCCC1 | – | > 100 µM | – | – | – | > 100 µM | – | – | – | 31 µM | – | 60.8 µM | – | 46.1 µM | – | > 100 µM | – | – | – | > 100 µM |
| Cn1c(=O)c(N=Nc2c(=O)n(C)c(=O)n3c2[nH]c2ccccc23)c2[nH]c3ccccc3n2c1=O | – | > 100 µM | – | – | – | > 100 µM | – | – | – | > 100 µM | – | – | – | > 100 µM | – | > 100 µM | – | > 100 µM | – | > 100 µM |
| COc1ccc2nccc(C3=CCC4CCN(C(=O)c5ccccc5)C3C4)c2c1 (centres undefined) | – | > 100 µM | – | – | – | > 100 µM | – | – | – | > 100 µM | – | > 100 µM | – | > 100 µM | – | – | – | > 100 µM | – | > 100 µM |
| O=c1ncccn1[C@@H]1O[C@H](CO)[C@H](O)C1O (some centres undefined) | – | > 100 µM | – | – | – | > 100 µM | – | – | – | > 100 µM | – | > 100 µM | – | > 100 µM | – | > 100 µM | – | > 100 µM | – | > 100 µM |
| C=C(c1ccccc1)C1(O)CCCCC1N (centres undefined) | – | > 100 µM | – | – | – | > 100 µM | – | – | – | > 100 µM | – | > 100 µM | – | > 100 µM | – | > 100 µM | – | > 100 µM | – | 95.3 µM |
| CCOC(=O)NC(=O)c1cn(CCN2CCN(C(=O)NCCCCCCNC(=O)N3CCN(CCn4cc(C(=O)NC(=O)OCC)c(=O)[nH]c4=O)CC3)CC2)c(=O)[nH]c1=O | – | > 100 µM | – | – | – | > 100 µM | – | – | – | > 100 µM | – | > 100 µM | – | > 100 µM | – | > 100 µM | – | > 100 µM | – | – |
| CN(C(=O)/C=C/c1ccccc1)C1C2CN3CCC(O2)C13 (centres undefined) | – | > 100 µM | – | – | – | > 100 µM | – | – | – | > 100 µM | – | > 100 µM | – | > 100 µM | – | > 100 µM | – | > 100 µM | – | > 100 µM |
| Cc1c(OC(C)C(=O)O)ccc2c(-c3ccccc3)cc(=O)oc12 (centres undefined) | – | > 100 µM | – | – | – | > 100 µM | – | – | – | > 100 µM | – | > 100 µM | – | > 100 µM | – | – | – | > 100 µM | – | > 100 µM |
| CC(=O)OCc1c2ccccc2c(C)c2c1cc(F)c1ccccc12 | – | > 100 µM | – | – | – | 43.6 µM | – | – | – | 36.4 µM | – | 33.8 µM | – | > 100 µM | – | > 100 µM | – | 85.3 µM | – | 40.5 µM |
| CC(=O)Nc1ccc(-c2cc(C(=O)O)c3cc4ccccc4cc3n2)cc1 | – | > 100 µM | – | > 100 µM | – | > 100 µM | – | > 100 µM | – | > 100 µM | – | > 100 µM | – | > 100 µM | – | > 100 µM | – | > 100 µM | – | – |
| Cn1ccnc1CCc1c(Cl)cccc1Cl | – | > 100 µM | – | – | – | > 100 µM | – | – | – | > 100 µM | – | > 100 µM | – | – | – | > 100 µM | – | > 100 µM | – | > 100 µM |
| O=C1C2C3C=C4c5ccccc5N(c5ccccc5)C4(C2C(=O)N1c1ccccc1)C1C(=O)N(c2ccccc2)C(=O)C31 (centres undefined) | – | > 100 µM | – | – | – | – | – | – | – | > 100 µM | – | > 100 µM | – | – | – | > 100 µM | – | > 100 µM | – | > 100 µM |
| O=C1Nc2ccccc2C1(O)C/C(=N/O)c1ccc2ccccc2c1 (centres undefined) | – | > 100 µM | – | – | – | – | – | – | – | > 100 µM | – | > 100 µM | – | > 100 µM | – | > 100 µM | – | > 100 µM | – | > 100 µM |
| CC1=C(C(=O)Nc2ccccc2C)C(c2ccc(Cl)cc2)C(C(=O)Nc2ccccc2C)=C(C)N1 | – | > 100 µM | – | – | – | > 100 µM | – | – | – | > 100 µM | – | > 100 µM | – | > 100 µM | – | > 100 µM | – | > 100 µM | – | > 100 µM |
| COc1cc(/C=C/C(=O)/C=C/c2cc(OC)c3c(c2)OCO3)cc2c1OCO2 | 39 µM | > 100 µM | – | – | 16.3 µM | > 100 µM | 1.92 µM | 4.22 µM | 4.86 µM | > 100 µM | 30.9 µM | > 100 µM | > 100 µM | > 100 µM | > 100 µM | > 100 µM | 5.47 µM | > 100 µM | 5.95 µM | > 100 µM |
| CCc1cccc(C)c1NS(=O)(=O)c1ccccc1 | – | > 100 µM | – | – | – | > 100 µM | – | – | – | – | – | – | – | > 100 µM | – | > 100 µM | – | – | – | > 100 µM |
| CC[O-].CC[O-].O=C([CH-]C(=O)c1ccccc1)CCCCCCCCC(=O)[CH-]C(=O)c1ccccc1.[Ti+4] | > 100 µM | > 100 µM | – | – | > 100 µM | > 100 µM | – | – | > 100 µM | > 100 µM | > 100 µM | > 100 µM | > 100 µM | > 100 µM | > 100 µM | > 100 µM | > 100 µM | > 100 µM | 41.8 µM | > 100 µM |
| O=C1C[C@H]2CCCN2[C@@H](c2ccccc2)C1 | – | > 100 µM | – | – | – | > 100 µM | – | – | – | > 100 µM | – | > 100 µM | – | > 100 µM | – | > 100 µM | – | > 100 µM | – | > 100 µM |
| Cc1cc2c(C)nn(Cc3ccccc3)c2c(C(=O)O)c1C | – | > 100 µM | – | – | – | > 100 µM | – | – | – | > 100 µM | – | > 100 µM | – | > 100 µM | – | > 100 µM | – | > 100 µM | – | > 100 µM |
